According to PubChem BioAssay (NCI):
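All cell lines were grown in 96-well plates and treated with compound for 48 hours. GI50: concentration for 50% inhibition of growth. Definition used: TGI = concentration required for complete inhibition of growth.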

Columns and labels:
Experiment in all cases: NCI tumour cell line growth inhibition, 48 h
[1] = tested on: HCT-15 colon
[2] = tested on: SN12C renal
[3] = tested on: SW-620 colon
[4] = tested on: MOLT-4 leukemia
[5] = tested on: SK-MEL-28 melanoma
[6] = tested on: UACC-257 melanoma
[7] = tested on: NCI-H460 lung
[8] = tested on: NCI-H522 lung
[9] = tested on: NCI/ADR-RES ovarian
[10] = tested on: MDA-MB-231 breast

Row | Compound | TGI [1] [µM] | TGI [2] [µM] | TGI [3] [µM] | TGI [4] [µM] | TGI [5] [µM] | TGI [6] [µM] | TGI [7] [µM] | TGI [8] [µM] | GI50 [1] [µM] | GI50 [2] [µM] | GI50 [3] [µM] | GI50 [8] [µM] | GI50 [4] [µM] | GI50 [5] [µM] | GI50 [6] [µM] | GI50 [7] [µM] | TGI [9] [µM] | TGI [10] [µM]
1 | Cn1c(=O)nc2n(-c3cc(C(F)(F)F)cc(C(F)(F)F)c3)c3ccccc3nc-2c1=O | > 100 | > 100 | > 100 | > 100 | > 100 | > 100 | > 100 | – | – | – | – | – | – | – | – | – | – | –
2 | CN(C(=O)c1ccc([N+](=O)[O-])cc1)c1ccccc1 | > 100 | > 100 | > 100 | > 100 | > 100 | > 100 | > 100 | > 100 | – | – | – | – | – | – | – | – | – | –
3 | COC(=O)C(=O)C(C(C)=O)C(=O)NCc1ccc(OC)c(OC)c1 (stereo not drawn) | > 100 | > 100 | > 100 | > 100 | > 100 | > 100 | > 100 | > 100 | – | – | – | – | – | – | – | – | – | –
4 | O=c1[nH]cnc(NC2C=C(CO)C(O)C2O)c1[N+](=O)[O-] (stereo not drawn) | > 54.7 | > 100 | > 62 | > 100 | > 100 | > 100 | > 58.2 | > 100 | – | – | – | – | – | – | – | – | – | –
5 | CC(C)(C)c1ccc2c(c1)S(=O)(=O)Nc1ccc(Cl)cc1NS(=O)(=O)c1cc(C(C)(C)C)ccc1OCCOCCOCCO2 | > 100 | > 100 | > 100 | > 100 | > 100 | > 100 | > 100 | – | – | – | – | – | – | – | – | – | – | –
6 | Cc1cccc(C2=C/C(=C(\SS/C(C(=O)c3ccc(OCC(=O)O)c(Cl)c3Cl)=C3\C=C(c4cccc(C)c4)SS3)C(=O)c3ccc(OCC(=O)O)c(Cl)c3Cl)SS2)c1 | > 51.6 | 65.1 | 49.8 | 40.2 | 87.4 | > 77.3 | > 68.1 | 8.14 | – | – | – | – | – | – | – | – | – | –
7 | CCC1CN2CCc3cc(OC)c(OC)cc3C2CC1CC1c2cc(OC)c(OC)cc2CCN1C(=O)C1CCCN1 (stereo not drawn) | > 100 | > 100 | > 100 | 85.1 | 50.9 | 41 | 74.8 | 35.3 | – | – | – | – | – | – | – | – | – | –
8 | COc1cccc(/C=N/[N-]C(=O)c2ccncc2)c1[O-].COc1cccc(/C=N/[N-]C(=O)c2ccncc2)c1[O-].[O]=[U](=[O])([OH2+])[OH2+] | > 100 | 32.5 | > 100 | > 100 | > 56.7 | > 54.4 | > 40.3 | 11 | 4.77 | 7.15 | 7.81 | 2.05 | 1.44 | 10 | 4.73 | 3.46 | – | –
9 | CCC/C=C/C=C/C1CC(O)C(O)C(=O)C1CO (stereo not drawn) | > 100 | > 100 | > 100 | – | > 100 | > 100 | > 100 | > 100 | – | – | – | – | – | – | – | – | > 100 | > 100
10 | NC(=O)C(=O)CC(=O)c1ccccc1NC1=CC(=O)C(=O)c2ccccc21 | > 100 | > 100 | > 100 | > 100 | > 100 | > 75.7 | > 100 | > 100 | – | – | – | – | – | – | – | – | – | –
11 | Nc1nc(-c2ccc(Cl)c([N+](=O)[O-])c2)cs1 | > 100 | > 100 | > 100 | > 100 | – | > 100 | > 100 | – | – | – | – | – | – | – | – | – | – | –
